Results reported in US10226458B2, “Pharmaceutical compositions comprising sorbitan esters” (Alkermes Pharma Ireland Limited, priority 2011, dated 2019).

Tests used:
[1] = Solubility of Compound A-7 in vehicles containing varying amounts of sorbitan monolaurate; type: physicochemical; details: 10 mM phosphate buffer, 0.2% polysorbate 20, saline, 0%-0.75% sorbitan laurate, 25° C., HPLC (FIG. 9)
Experimental: • a. Injection vehicles comprised of ca. 10 mM phosphate buffer, 0.2% polysorbate 20, saline and various amount of sorbitan laurate (0%-0.75%) were prepared. The injection vehicles were stirred for 4 hours before preparing suspension preparation. • b. Approximately 1.25±0.05 g of Compound A-7 were added to 15 mL injection vehicles in a 20-mL glass scintillation vial with a ⅞″× 5/16″ stirring bar. The suspension was vigorously stirred on Chemglass CG-1990-T-50 hotplate at 25° C. which was controlled using a thermal sensor. • c. At each time point, a total of 3 mL of -mixed suspension were transferred into two 1.5-mL centrifuge tubes using a plastic pipette. The tubes were centrifuged at 14,000 rpm for 4 minutes. The supernatant of both tubes were combined and centrifuged again at 14,000 rpm for 4 minutes. The HPLC sample was then prepared with final (2nd) centrifuged supernatant by diluting 0.4 mL supernatant with 0.6 mL THF. • d. Concentration of dissolved Compound A-7 was determined using HPLC.

[2] = Previous experiments on wetting of Compound A-7 solids load by polysorbate 20; type: physicochemical; details: 25.6 wt % solids load of Compound A-7 bulk recrystallized drug substance
[3] = cited from earlier work
rats = test: Subcutaneous injection site reaction model; details: single SC injection, Day 10, formulations comprising sorbitan laurate compared to formulations with no sorbitan laurate (FIGS. 8A, 8B)
[4] = Wettability characterization: free energy of immersion and spreading coefficient of Compound A-7 in injection vehicles; type: physicochemical; details: recrystallized Compound A-7 against the named injection vehicle formulation; predicted from vehicle surface tension and solid surface energy
Text: A surface energy measurement methodology was developed that would allow for facile screening of formulation candidates with minimal use of drug substance. These experiments utilize the surface tension of the injection vehicle and surface energy of the solid to predict the immersional free energy and spreading coefficient between the liquid and the solid.
A force-balance tensiometer (Attension Sigma® 701) with a platinum Wilhelmy plate was used to measure the surface energy (tension) of the vehicle of interest. This was done using a 30 mL sample of the vehicle of interest and taking 8 individual surface tension measurements. The first 3 measurements were discarded as being non-representative of equilibrium conditions, and the remaining measurements were averaged to give the surface tension value. […] To then obtain the polar and non-polar (dispersive) components of the surface tension, a polytetrafluoroethylene (PTFE) contact angle standard (Rame-Hart) was affixed to the tensiometer and the dynamic contact angle was measured. […]
With the total surface tension of the liquid, and the contact angle of the liquid on a non-polar surface with known surface energy attributes, the polar and dispersive components of the surface tension were calculated. […]

CCCCCCCCCCCC(=O)OCN1C(=O)CCc2ccc(OCCCCN3CCN(c4cccc(Cl)c4Cl)CC3)cc21 [Compound A-7, (7-(4-(4-(2,3-dichlorophenyl)piperazin-1-yl)butoxy)-2-oxo-3,4-dihydroquinolin-1(2H)-yl)methyl dodecanoate]
solubility (concentration of dissolved Compound A-7) [1]: decreases solubility up to 0.5 wt % SML with solubility increasing again above 0.5 wt. % | polysorbate 20 required to adequately wet the drug substance [2]: at least 0.1%

O=C1CCc2ccc(OCCCCN3CCN(c4cccc(Cl)c4Cl)CC3)cc2N1 [aripiprazole (free base), 7-{4-[4-(2,3-dichlorophenyl)-1-piperazinyl]butoxy}-3,4-dihydro-2(1H)-quinolinone]
tissue irritation ([3]; following IM and SC injection): unacceptable (moderate to severe) tissue irritation | pharmacokinetic profile ([3]; long-acting injections): prolonged pharmacokinetic profile | injection site reaction (weight of excised ISR) (rats): significant reduction in injection site reaction

Cc1cc2c(s1)Nc1ccccc1N=C2N1CCN(C)CC1.O.O=C(O)c1cc2ccccc2c(Cc2c(O)c(C(=O)O)cc3ccccc23)c1O [olanzapine pamoate]
injection site reaction (weight of excised ISR) (rats): significant reduction in injection site reaction

Water
FREE ENERGY OF IMMERSION [4]: 10 mN/m | SPREADING COEFFICIENT [4]: −83.3 mN/m
